According to patent US20250115573A1, “PYRIDAZINE-BASED PYRIDINE DERIVATIVES AS BIOLOGICALLY ACTIVE AGENTS” (priority 2023, published 2025):
≈ marks a conversion by molar mass, not a printed value.

Tests used:
[1] = DPPH antioxidant activity; settings: DPPH method; ascorbic acid's IC50 value normalized to 100%
Protocol: The antioxidant activity was assessed by the DPPH (1,1-diphenyl-2-picryl hydrazyl) method employing ascorbic acid as a standard. A 0.1 mM solution of DPPH was freshly prepared in ethanol. Different dilutions (25, 20, 15, 10 and 5 μg/mL) of compounds 1-12 and ascorbic acid were also prepared in ethanol. The test and standard solutions were prepared by adding DPPH solution (2 mL) to the different dilutions (6 mL each) of the compounds 1-12 and ascorbic acid, respectively. The control solution was prepared by adding DPPH solution (2 mL) to ethanol (6 mL). The resultant mixtures were shaken and kept at 25° C. for half an hour. The absorbance of the test, standard, and control solutions was measured at 517 nm using a UV-Visible spectrophotometer. The experiment was performed in triplicate, and the antioxidant activity was calculated using the following equation,
wherein Ac is the absorbance of the control, and As is the absorbance of the test or standard sample. The IC50 values were obtained from the regression analysis.

human COX-2 = biological target: T1, human COX-2 (Homo sapiens, UniProt P35354); assay: In vitro COX-2 inhibitory activity; format: biochemical; settings: for selectivity index: COX-2 over COX-1, selectivity index of celecoxib normalized to 100%; for COX-2 inhibitory activity in comparison to celecoxib: IC50 value of celecoxib normalized to 100%
T1 construct: purchased Cayman Chemicals 560131
T1 sequence (P35354 18-604): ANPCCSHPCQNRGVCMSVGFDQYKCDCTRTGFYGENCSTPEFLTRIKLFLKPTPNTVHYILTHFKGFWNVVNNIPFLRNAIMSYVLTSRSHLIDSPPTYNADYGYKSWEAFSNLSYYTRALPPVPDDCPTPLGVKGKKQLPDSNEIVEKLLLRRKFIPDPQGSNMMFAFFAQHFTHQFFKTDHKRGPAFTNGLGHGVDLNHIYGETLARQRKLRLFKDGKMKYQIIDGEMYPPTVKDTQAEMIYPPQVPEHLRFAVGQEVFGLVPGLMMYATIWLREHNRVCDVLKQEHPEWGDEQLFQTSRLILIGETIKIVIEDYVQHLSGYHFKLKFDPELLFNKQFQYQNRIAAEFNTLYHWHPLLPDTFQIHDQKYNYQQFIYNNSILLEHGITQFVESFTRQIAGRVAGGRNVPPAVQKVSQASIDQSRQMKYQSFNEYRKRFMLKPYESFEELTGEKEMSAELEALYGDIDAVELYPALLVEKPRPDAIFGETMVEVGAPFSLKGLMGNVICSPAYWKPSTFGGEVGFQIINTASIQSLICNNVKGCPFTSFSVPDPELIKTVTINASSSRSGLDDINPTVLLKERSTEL

[2] = system: Aspergillus niger (A. niger, MTCC 281); assay: Antimicrobial activity, serial plate dilution method; format: cell-based; settings: MTCC281, against A. niger, Sabouraud dextrose medium
Protocol: (§1) Antimicrobial activity was performed by the serial plate dilution method (Medicinal Chemistry Research, 2017, 26, 1481-1496; Arabian Journal of Chemistry, 2016, 9, 1523-1531) against two Gram-positive bacteria, Staphylococcus aureus (S. aureus, ATCC 25923) and Enterococcus faecalis (E. faecalis, ATCC 29212); two Gram-negative bacteria, Escherichia coli (E. coli, ATCC 25922) and Pseudomonas aeruginosa (P. aeruginosa, ATCC 27853); and two fungi, Candida albicans (C. albicans, ATCC 2091) and Aspergillus niger (A. niger, MTCC 281). Antibacterial activity was performed on nutrient agar medium, whereas Sabouraud dextrose medium was used for the antifungal activity. The compounds 1-12 were tested at 100, 75, 50, 25, and 12.5 μg/mL concentrations. The standard antibiotics, ofloxacin and ketoconazole, were tested at 50, 25, and 12.5 μg/mL concentrations. Sterile dimethyl sulfoxide (DMSO) was used as a solvent for making the desired concentrations of the compounds ofloxacin and ketoconazole. Sterile DMSO also served as a control group. The minimum inhibitory concentrations (MICs) values of the synthesized compounds, ofloxacin and ketoconazole, were determined. The minimum inhibitory concentration (MIC) has been defined as the lowest concentration of a compound that inhibits the visible growth of the microorganisms in the media.

[3] = system: Candida albicans (C. albicans, ATCC 2091); assay: as above; format: cell-based; settings: ATCC2091, against C. albicans, Sabouraud dextrose medium
Protocol: as §1

[4] = system: Enterococcus faecalis (E. faecalis, ATCC 29212); assay: as above; format: cell-based; settings: ATCC29212, against E. faecalis, nutrient agar medium
Protocol: as §1

[5] = system: Staphylococcus aureus (S. aureus, ATCC 25923); assay: as above; format: cell-based; settings: ATCC25923, against S. aureus, nutrient agar medium
Protocol: as §1

In the case of COc1ccccc1-n1c(N)c(C#N)c(-c2ccc(-n3nc(-c4ccccc4)ccc3=O)cc2)c(C#N)c1=O [Compound 4, 6-Amino-1-(2-methoxyphenyl)-2-oxo-4-(4-(6-oxo-3-phenylpyridazin-1(6H)-yl)phenyl)-1,2-dihydropyridine-3,5-dicarbonitrile], the “antioxidant activity in comparison to ascorbic acid” value (from here on “antioxidant activity in comparison”) [1] is reported as 71.95%.

Work on N#Cc1c(-c2ccc(-n3nc(-c4ccccc4)ccc3=O)cc2)c(C#N)c(=O)n(-c2ccccn2)c1N [Compound 6, 6-Amino-2-oxo-4-(4-(6-oxo-3-phenylpyridazin-1(6H) -yl)phenyl)-2H-[1,2′-bipyridine]-3,5-dicarbonitrile] yielded a selectivity index (human COX-2) of 101.61%.

For N#Cc1c(-c2ccc(-n3nc(-c4ccccc4)ccc3=O)cc2)c(C#N)c(=O)n(-c2nccs2)c1N [Compound 7, 6-Amino-2-oxo-4-(4-(6-oxo-3-phenylpyridazin-1(6H) -yl)phenyl)-1-(thiazol-2-yl)-1,2-dihydro-pyridine-3,5-dicarbonitrile], the selectivity index (human COX-2) was 121.73%.

For Cc1c(-n2c(N)c(C#N)c(-c3ccc(-n4nc(-c5ccccc5)ccc4=O)cc3)c(C#N)c2=O)c(=O)n(-c2ccccc2)n1C [Compound 8, 6-Amino-1-(1,5-dimethyl-3-oxo-2-phenyl-2,3-dihydro-1H-pyrazol-4-yl)-2-oxo-4-(4-(6-oxo-3-phenylpyridazin-1(6H)-yl)phenyl) -1,2-dihydropyridine-3,5-dicarbonitrile], the “antioxidant activity in comparison” value [1] was 78.32%.

In the case of N#Cc1c(-c2ccc(-n3nc(-c4ccccc4)ccc3=O)cc2)c(C#N)c(=O)n(-c2cccc(C(F)(F)F)c2)c1N [Compound 9, 6-amino-2-oxo-4-(4-(6-oxo-3-phenylpyridazin-1(6H) -yl)phenyl)-1-(3-(trifluoromethyl)phenyl)-1,2-dihydropyridine-3,5-dicarbonitrile], the MIC [2] is reported as 12.5 µg/mL (≈ 22.7 µM), the MIC [3] is reported as 12.5 µg/mL (≈ 22.7 µM) and the “antioxidant activity in comparison” value [1] is reported as 70.90%. The selectivity index (human COX-2) was 111.0% and the “COX-2 inhibitory activity in comparison to celecoxib” value (human COX-2) was 100.89%.

In the case of N#Cc1c(-c2ccc(-n3nc(-c4ccccc4)ccc3=O)cc2)c(C#N)c(=O)n(-c2ccc(S(N)(=O)=O)cc2)c1N [Compound 10, 4-(6-amino-3,5-dicyano-2-oxo-4-(4-(6-oxo-3-phenylpyridazin-1(6H)-yl)phenyl)pyridin-1(2H)-yl)benzenesulfonamide], the MIC [4] is reported as 25 µg/mL (≈ 44.5 µM), the MIC [5] is reported as 25 µg/mL (≈ 44.5 µM) and the “antioxidant activity in comparison” value [1] is reported as 74%. For the same molecule, the selectivity index (human COX-2) was 121.20% and the “COX-2 inhibitory activity in comparison to celecoxib” value (human COX-2) was 105.95%.

In the case of O=C1O[C@H]([C@@H](O)CO)C(O)=C1O [ascorbic acid, reference compound], the “antioxidant activity in comparison” value [1] is reported as 100%.

CC(=O)N1CCN(c2ccc(OCC3COC(Cn4ccnc4)(c4ccc(Cl)cc4Cl)O3)cc2)CC1 (stereo not shown) [ketoconazole, reference compound] gave an MIC [2] of 12.5 µg/mL (≈ 23.5 µM) and an MIC [3] of 12.5 µg/mL (≈ 23.5 µM).

Work on CC1COc2c(N3CCN(C)CC3)c(F)cc3c(=O)c(C(=O)O)cn1c23 (stereo not shown) [ofloxacin, reference compound] yielded an MIC [4] of 25 µg/mL (≈ 69.2 µM) and an MIC [5] of 25 µg/mL (≈ 69.2 µM).
